Key:
[1] = target: T1, p38 MAP kinase (Homo sapiens, UniProt Q16539); experiment: p38 (MAP) kinase in vitro assay; format: biochemical; details: transfer of γ-phosphate from γ-33P-ATP to Myelin Basic Protein; phosphorylated recombinant p38 MAP kinase
T1 construct: made in house; host or cells: E. coli (co-expressed with SEK-1 and MEKK)
Procedure: This example illustrates a p38 (MAP) kinase in vitro assay useful for evaluating the compounds of the invention.
The p38 MAP kinase inhibitory activity of compounds of this invention in vitro was determined by measuring the transfer of the γ-phosphate from γ-^33P-ATP by p-38 kinase to Myelin Basic Protein (MBP), using a minor modification of the method described in Ahn, et al., J. Biol. Chem. 266:4220-4227 (1991).
The phosphorylated form of the recombinant p38 MAP kinase was co-expressed with SEK-1 and MEKK in E. Coli (see, Khokhlatchev, et al., J. Biol. Chem. 272:11057-11062 (1997)) and then purified by affinity chromatography using a Nickel column.
The phosphorylated p38 MAP kinase was diluted in kinase buffer (20 mM 3-(N-morpholino)propanesulfonic acid, pH 7.2, 25 mM β-glycerol phosphate, 5 mM ethylene glycol-bis(beta-aminoethyl ether)-N,N,N′,N′-tetraacetic acid, 1 mM sodium ortho-vanadate, 1 mM dithiothreitol, 40 mM magnesium chloride). Test compound dissolved in DMSO or only DMSO (control) was added and the samples were incubated for 10 min at 30° C. The kinase reaction was initiated by the addition of a substrate cocktail containing MBP and γ-^33P-ATP. […] The phosphorylated MBP was then separated from the residual γ-^33P-ATP using a phosphocellulose membrane (Millipore, Bedfrod, Mass.) and quantitated using a scintillation counter (Packard, Meriden, Conn.).

T1 sequence (Q16539 whole entry): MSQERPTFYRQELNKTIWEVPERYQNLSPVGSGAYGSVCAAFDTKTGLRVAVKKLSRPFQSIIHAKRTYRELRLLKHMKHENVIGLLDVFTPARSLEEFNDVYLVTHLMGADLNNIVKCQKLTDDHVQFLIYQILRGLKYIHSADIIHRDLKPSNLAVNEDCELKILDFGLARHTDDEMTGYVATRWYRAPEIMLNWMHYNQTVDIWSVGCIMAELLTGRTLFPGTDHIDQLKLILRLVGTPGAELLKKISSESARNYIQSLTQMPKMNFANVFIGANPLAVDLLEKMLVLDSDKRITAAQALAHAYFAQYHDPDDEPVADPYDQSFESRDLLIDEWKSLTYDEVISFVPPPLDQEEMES

IC50 [1]: ~165 nM
melting point: 143.7 to 145 °C
Compound: CC(C)Oc1n[nH]c2nc(Oc3ccc(F)cc3F)ncc12 [Compound 1, 6-(2,4-Difluoro-phenoxy)-3-isopropoxy-1H-pyrazolo[3,4-d]pyrimidine]

Reference: US7563800B2, “Substituted pyrazolo[3,4-D]pyrimidines as p38 map kinase inhibitors” (Roche Palo Alto LLC, priority 2006, dated 2009)
